Assay results as given in patent US12410152B2, “Oxazole and thioazole-type cullin ring ubiquitin ligase compounds and uses thereof” (Proxygen GmbH, priority 2019, dated 2025).

Legend:
CCNK and DDB1 [1] = biological target: T1, CCNK and DDB1 (Homo sapiens, UniProt O75909+Q16531); assay: Photo-affinity probe (IC021313.2^PAP) pulldown in intact KBM7 cells; format: binding; details: UV crosslink, competed by THZ531
T1 construct: endogenous in cells; host or cells: KBM7 cells (lysate in A24, intact cells in A25)
Description: Regarding the second strategy, an alternative method for drug-target enrichment that is based on cellular treatment with IC021313.2^PAP, a functionalized analog of IC021313.2 containing a photoactive diazirine moiety and an alkyne handle was performed (FIG. 20 d). Following cellular treatment with IC021313.2^PAP, cells were UV crosslinked, lysed and the alkyne handle in IC021313.2^PAP was biotinylated for subsequent immobilization on streptavidin beads and identification of drug-interacting proteins via immunoblots. […] Also in this setup, covalently saturating the CDK12/13 binding site with THZ-531 competed with IC021313.2^PAP enrichment (FIG. 20 e, f). Collectively, both strategies indicate simultaneous engagement of the destabilized CCNK and the CRL4 adaptor protein DDB1 in a CDK12/13-dependent manner.
IC021313.2^NH2 was conjugated to a constant side chain consisting of a photosensitive diazirine group and an alkyne handle.
20 million KBM7^WT cells per condition were pre-treated with either DMSO or 100 μM THZ531 (competition condition) for 1h in the presence of 10 μM carfilzomib (Selleckchem, S2853) in serum-free IMDM medium (3 ml/20 million cells/10 cm dish). Then, cells were treated with 10 μM IC020772.1^PAP for 1h. […] Eluates were analyzed by WB. Quantification was performed with ImageJ.

CCNK and DDB1 [2] = biological target: T1, CCNK and DDB1; assay: Drug affinity chromatography with IC021313.2^NH2-coupled beads in KBM7 lysates; format: binding; details: KBM7 whole cell lysates; competed by THZ531 100 μM
Source text: Regarding the first strategy, a variant of IC021313.2 associated with a free amine and named IC021313.2^NH2 allowed immobilizing IC021313.2^NH2 on sepharose beads, and purification of interacting proteins out of whole cell lysates (FIG. 20 a, b). […] Treating lysates with THZ531 and thus covalently blocking the active sites on CDK12/13 prevented DDB1 and CCNK enrichment via the IC021313.2^NH2 resin. This is in line with the fact that cellular co-treatment with THZ531 was able to abrogate drug-induced CCNK degradation (FIG. 19 d).
100 μL NHS-Activated Sepharose 4 Fast Flow (GE Life Sciences, 17090601) per condition were washed with 500 μL DMSO 3 times (3 min 800 rpm centrifugation at RT). Beads were resuspended in 50 μL DMSO and 2.5 μL IC021313.2^NH2 10 mM and 0.75 μL TEA (Sigma-Aldrich, T0886) were added. […]
200 million KBM7 cells were resuspended in 2 mL lysis buffer ([…] pH 7.5, 0.2% NP-40, 5% glycerol, 1.5 mM MgCl2, 100 mM NaCl, 1 mM EDTA) supplemented with protease inhibitors (Thermo Scientific, 78437) and benzonase (Merck, US170746-370746) and incubated on ice for 30 min. After centrifugation (full-speed, 4° C., 30 min) supernatant was transferred to a new tube and extracted protein measured with BCA (Fisher Scientific, 23225). […]

[3] = tested on: KBM7 cells (DCAF15 knockout); assay: Cell viability, KBM7 DCAF15 knockout vs WT (72 hour treatment); format: cell-based, human
Description: FIG. 18. (A) Cellular viability of KBM7 cells (WT or UBE2M mutant) after treatment with dCeMM.1. (72 hour treatment) (B) cellular viability of KBM7 cells (WT or DCAF15 knockout) after dose-ranging treatment with dCeMM.1 (72 hour treatment).
In another experiment, 2000 compounds were screened in a set up comparing their anti-proliferative effect in KBM7 cells modified in the UBE2M gene to wildtype KBM7 cells (FIG. 3). The PROTAC® ARV-771 was taken as positive control. Of note, among the identified hits was also dCeMM.1, which was similarly identified via the aforementioned DCAF15 restabilization assay.

RBM39 = biological target: T2, RBM39 (Homo sapiens, UniProt Q14498+Q66K64); assay: RBM39 levels by Western blot, WT vs DCAF15-deficient cells; format: cell-based; details: KBM7 12 or 16 h (dCeMM-1); 293T 10 h (dCeMM-2)
T2 construct: endogenous in cells; host or cells: KBM7 (WT or DCAF15 knockout) and 293T (DCAF15-HiBit or knockout)
Description: The known DCAF15 molecular glue indisulam was used as a positive control. In brief, indisulam is known to act as a DCAF15-dependent molecular glue that binds DCAF15 and induced proximity between DCAF15 and RBM39, leading to the degradation of the latter. […] Given the structural similarity to indisulam, it was assayed if the two new test compounds would similarly lead to the degradation of RBM39 in a DCAF15-dependent manner. Towards that end, their effect on RBM39 levels in wildype cells as well as cells deficient for DCAF15 levels was tested. KBM7 (WT or knockout, FIG. 15) as well as 293T cells (DCAF15-HiBit overexpression vs knockout, see FIG. 16) were tested in various conditions of dCEMM.1 and/or dCEMM.2, comparing their effect to indisulam.
PBS-washed cell pellets were lysed in 50 mM Tris pH 7.9, 8M Urea and 1% CHAPS and incubated with shaking at 4° C. for at least 30 min. 20 μg of supernatants were run and transferred for detection. […]

UBE2M mutant KBM7 cells = assay: cells; format: cell-based; details: KBM7 UBE2M mutant vs WT
Description: KBM7 cells with the specified genetic backgrounds were grown in IMDM supplemented with 10% FBS and 1% penicillin/streptomycin (pen/strep). AsPC1, HCT116, NCI-H446 and 293T cells were grown in DMEM 10% FBS and 1% pen/strep. MV4; 11, Jurkat and Be (2) C cells were grown in RPMI 10% FBS 1% pen/strep. KBM7, AsPC1 and HCT116 cells expressing Cas9 were generated using the plasmid Lenti_Cas9_Blasti (Addgene #52962). The lentiviral plasmid lentiGuide-Puro (Addgene #52963) was used to express sgRNAs against the genes UBE2M (in KBM7-Cas9, AsPC1-Cas9 and HCT116-Cas9 cells), UBE2G1 (in KBM7-Cas9 cells) and […] (in KBM7-Cas9 cells). The lentiviral plasmid lentiGuide-Puro-IRES-mCherry (modified from Addgene #52963) was used to express sgRNAs against CUL4A (in KBM7-Cas9 cells). The lentiviral plasmid pLenti-PGK-Hygro-DEST-UBE2M was generated by Gateway cloning (empty destination vector Addgene #19066), and used to generate UBE2M^resc KBM7 cells. […]
Following this observation, it was rationalized that novel small molecule degraders can be identified in an unbiased manner, simply by searching for compounds that lose activity in the absence of UBE2M. 2000 small molecules, mostly of unknown function/target, were tested for their antiproliferative effects in human leukemia cells (KBM7). These cells were either transduced with a control sgRNA (KBM7WT), or with an sgRNA targeting UBE2M, leading to a hypomorph (deletion of six amino acids) with a functional impairment (UBE2Mmut).
Finally, a total of structurally similar analogs was tested to unravel structure-activity relationship of the identified molecules. To that end, their anti-cancer activity was assayed in WT cells, as well as KBM7 cells deficient in genes identified in the genome-wide CRISPR screens (UBE2M, CUL4B, UBE2G1). Moreover, the compounds were also tested in AsPC1 pancreatic cancer cells (WT or UBE2Mmut), MV4; 11 and Jurkat leukemia cells, Be (2) C neuroblastoma cells, and NCI-H446 lung cancer cells (Table 3 at the end of this document)
KBM7^WT, mutant KBM7 clones (UBE2M^mut, UBE2M^resc, UBE2G1^mut CUL4A^mut, CUL4B^mut), and 3-day doxycycline pretreated KBM7^iCas9_sgDDB1 cells were seeded at a cell density of 50,000 cells/mL in 96-well plates with DMSO or drug, in triplicates. Drugs used: IC020772.1/IC020772.1X, IC021313.2/IC021313.2X, T6938051/T6938051X or THZ531. Cells were treated for 3 days, after which cell viability was assessed according to manufacturer's protocol (CellTiter Glo, Promega G7570). Survival curves and EC50 values were calculated by best-fit analysis of the log 10 drug concentration to fold change of drug-treated cells over DMSO-treated cells. All survival assays included technical triplicates per sample, per experiment.

DCAF15 = biological target: T3, DCAF15 (Homo sapiens, UniProt Q66K64); assay: DCAF15 stabilization, live-cell HiBit/LgBit bioluminescence screen; format: cell-based; details: 10 μM, 293T cells expressing HiBit-DCAF15
T3 construct: expressed in transfected cells; host or cells: 293T cells, DCAF15 knocked out, additionally transduced with LgBit
Source text: Subsequently, in this context, the E3 ligase substrate receptor (SR) stabilization approach was employed in order to identify novel chemical matter that can bind and chemically re-program the substrate receptor DCAF15. To be able to screen a collection of around 8000 small-molecules, a cellular system was developed that enabled monitoring of DCAF15 levels in live cells in multi-well format. To that end, DCAF15 was first knocked out in 293T cells via CRISPR/Cas9 technology. Then, DCAF15 was stably expressed as a HiBit® fusion protein in these cells. After further transducing these cells with LgBit, this allowed live-cell tracing of DCAF15 levels in 384 well format by measuring bioluminescence (FIG. 13).
In brief, cells were seeded at a concentration of 250′000 cells/ml in DMEM+10% FCS+25 mM Hepes. The luciferase substrate Endurazine was added at concentrations recommended by the manufacturer. Small-molecules were added at a concentration of 10 μM, and their effect on DCAF15 levels was assayed by continuous bioluminescent imaging (measurements were taken every 120 minutes). In total, 8000 compounds were tested.
The known DCAF15 molecular glue indisulam was used as a positive control. In brief, indisulam is known to act as a DCAF15-dependent molecular glue that binds DCAF15 and induced proximity between DCAF15 and RBM39, leading to the degradation of the latter. […]

T1 sequence (O75909 whole entry): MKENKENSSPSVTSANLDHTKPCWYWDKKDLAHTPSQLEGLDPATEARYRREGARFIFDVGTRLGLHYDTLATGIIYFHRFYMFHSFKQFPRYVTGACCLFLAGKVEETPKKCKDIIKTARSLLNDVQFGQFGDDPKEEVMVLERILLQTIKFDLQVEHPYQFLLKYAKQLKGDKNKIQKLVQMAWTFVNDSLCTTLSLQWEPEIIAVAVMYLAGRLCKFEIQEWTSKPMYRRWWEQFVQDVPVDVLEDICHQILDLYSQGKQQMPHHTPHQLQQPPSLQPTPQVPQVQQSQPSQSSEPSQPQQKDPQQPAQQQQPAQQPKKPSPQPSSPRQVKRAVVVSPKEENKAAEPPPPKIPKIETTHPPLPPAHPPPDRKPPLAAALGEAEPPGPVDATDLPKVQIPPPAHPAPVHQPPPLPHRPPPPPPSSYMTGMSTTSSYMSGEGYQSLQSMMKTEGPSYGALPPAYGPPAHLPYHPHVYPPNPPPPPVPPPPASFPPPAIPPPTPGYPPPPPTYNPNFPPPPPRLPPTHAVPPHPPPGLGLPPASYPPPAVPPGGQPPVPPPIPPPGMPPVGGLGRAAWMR
T1 sequence (Q16531 2-1140 limits assumed): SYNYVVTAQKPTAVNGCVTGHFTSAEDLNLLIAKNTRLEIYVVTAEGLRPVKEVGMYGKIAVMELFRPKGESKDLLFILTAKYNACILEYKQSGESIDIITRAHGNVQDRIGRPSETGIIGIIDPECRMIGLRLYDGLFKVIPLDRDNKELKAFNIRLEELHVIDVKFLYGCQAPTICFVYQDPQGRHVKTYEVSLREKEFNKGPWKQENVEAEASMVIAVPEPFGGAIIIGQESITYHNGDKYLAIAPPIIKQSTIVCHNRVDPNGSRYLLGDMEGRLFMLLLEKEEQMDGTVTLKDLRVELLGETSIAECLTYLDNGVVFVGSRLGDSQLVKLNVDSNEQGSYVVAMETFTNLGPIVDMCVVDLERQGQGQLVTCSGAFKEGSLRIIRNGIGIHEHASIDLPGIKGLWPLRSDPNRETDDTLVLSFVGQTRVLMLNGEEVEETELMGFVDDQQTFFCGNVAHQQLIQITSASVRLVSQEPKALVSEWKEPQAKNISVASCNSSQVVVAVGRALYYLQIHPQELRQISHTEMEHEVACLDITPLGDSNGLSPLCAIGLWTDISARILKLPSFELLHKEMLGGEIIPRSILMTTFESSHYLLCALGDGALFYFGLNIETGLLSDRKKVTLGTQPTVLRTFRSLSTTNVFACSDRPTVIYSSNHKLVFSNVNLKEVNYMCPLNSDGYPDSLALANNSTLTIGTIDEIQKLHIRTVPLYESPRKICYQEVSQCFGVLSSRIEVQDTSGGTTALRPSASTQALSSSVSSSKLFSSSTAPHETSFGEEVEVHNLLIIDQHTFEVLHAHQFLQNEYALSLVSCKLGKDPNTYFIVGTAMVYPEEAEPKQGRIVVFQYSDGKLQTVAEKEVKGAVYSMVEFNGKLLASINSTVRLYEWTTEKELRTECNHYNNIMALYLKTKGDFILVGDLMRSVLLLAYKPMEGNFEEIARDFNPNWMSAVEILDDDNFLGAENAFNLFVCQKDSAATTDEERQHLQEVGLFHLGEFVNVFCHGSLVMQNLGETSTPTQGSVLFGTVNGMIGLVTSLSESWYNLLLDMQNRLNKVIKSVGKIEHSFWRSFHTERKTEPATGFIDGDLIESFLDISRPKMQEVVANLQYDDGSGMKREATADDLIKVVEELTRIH
T1 sequence (Q9NYV4 whole entry partner): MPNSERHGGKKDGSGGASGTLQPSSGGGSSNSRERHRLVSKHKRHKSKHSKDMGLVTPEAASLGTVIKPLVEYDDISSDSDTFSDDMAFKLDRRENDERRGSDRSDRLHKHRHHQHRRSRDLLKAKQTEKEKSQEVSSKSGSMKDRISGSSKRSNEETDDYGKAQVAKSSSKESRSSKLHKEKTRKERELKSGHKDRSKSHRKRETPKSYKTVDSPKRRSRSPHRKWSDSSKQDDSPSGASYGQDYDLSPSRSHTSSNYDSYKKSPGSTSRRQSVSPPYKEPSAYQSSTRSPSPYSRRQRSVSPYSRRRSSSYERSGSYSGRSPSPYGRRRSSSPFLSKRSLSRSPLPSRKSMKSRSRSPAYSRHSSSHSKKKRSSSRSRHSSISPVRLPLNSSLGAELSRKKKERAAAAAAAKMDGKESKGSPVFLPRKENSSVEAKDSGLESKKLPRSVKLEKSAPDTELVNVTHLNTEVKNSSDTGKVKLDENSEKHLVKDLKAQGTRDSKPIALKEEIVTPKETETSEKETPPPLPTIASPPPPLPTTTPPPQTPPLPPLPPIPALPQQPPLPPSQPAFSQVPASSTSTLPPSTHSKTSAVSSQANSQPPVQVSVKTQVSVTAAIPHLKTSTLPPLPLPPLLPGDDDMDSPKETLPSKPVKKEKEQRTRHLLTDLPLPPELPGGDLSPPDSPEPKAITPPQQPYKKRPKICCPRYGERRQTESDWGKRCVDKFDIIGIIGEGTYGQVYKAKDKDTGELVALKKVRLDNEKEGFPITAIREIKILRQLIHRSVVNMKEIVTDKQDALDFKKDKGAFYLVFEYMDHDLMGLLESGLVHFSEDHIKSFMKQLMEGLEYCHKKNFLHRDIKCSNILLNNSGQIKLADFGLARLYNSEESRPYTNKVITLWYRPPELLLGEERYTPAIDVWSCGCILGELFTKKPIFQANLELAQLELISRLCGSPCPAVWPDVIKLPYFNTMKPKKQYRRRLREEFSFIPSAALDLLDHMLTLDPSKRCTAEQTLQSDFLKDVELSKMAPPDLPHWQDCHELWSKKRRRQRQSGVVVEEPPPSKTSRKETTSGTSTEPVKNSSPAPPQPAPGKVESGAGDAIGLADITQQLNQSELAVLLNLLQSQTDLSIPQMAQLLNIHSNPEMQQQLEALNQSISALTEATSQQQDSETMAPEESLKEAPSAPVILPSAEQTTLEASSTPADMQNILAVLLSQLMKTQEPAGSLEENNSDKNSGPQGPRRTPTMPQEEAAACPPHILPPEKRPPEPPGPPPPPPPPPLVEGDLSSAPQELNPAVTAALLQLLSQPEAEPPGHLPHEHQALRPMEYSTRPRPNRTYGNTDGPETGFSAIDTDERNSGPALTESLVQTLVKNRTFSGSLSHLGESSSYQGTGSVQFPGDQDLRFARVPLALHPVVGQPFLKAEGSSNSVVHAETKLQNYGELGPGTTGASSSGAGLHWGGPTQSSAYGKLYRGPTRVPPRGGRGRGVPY
T2 sequence (Q14498 2-530 limits assumed): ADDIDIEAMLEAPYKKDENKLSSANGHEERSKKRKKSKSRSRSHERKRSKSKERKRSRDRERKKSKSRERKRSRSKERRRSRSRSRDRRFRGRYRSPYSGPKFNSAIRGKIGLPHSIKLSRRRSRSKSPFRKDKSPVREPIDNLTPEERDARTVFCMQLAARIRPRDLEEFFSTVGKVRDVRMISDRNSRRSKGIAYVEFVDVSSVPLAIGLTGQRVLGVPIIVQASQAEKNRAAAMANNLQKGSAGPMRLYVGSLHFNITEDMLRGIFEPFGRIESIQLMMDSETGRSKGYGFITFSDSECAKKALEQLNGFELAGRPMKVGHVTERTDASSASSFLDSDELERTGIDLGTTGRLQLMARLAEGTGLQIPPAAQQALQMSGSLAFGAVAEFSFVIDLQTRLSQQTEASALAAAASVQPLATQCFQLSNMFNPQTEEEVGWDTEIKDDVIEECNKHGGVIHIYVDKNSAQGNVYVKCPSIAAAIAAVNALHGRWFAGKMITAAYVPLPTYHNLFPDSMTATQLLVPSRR
T2 sequence (Q66K64 whole entry): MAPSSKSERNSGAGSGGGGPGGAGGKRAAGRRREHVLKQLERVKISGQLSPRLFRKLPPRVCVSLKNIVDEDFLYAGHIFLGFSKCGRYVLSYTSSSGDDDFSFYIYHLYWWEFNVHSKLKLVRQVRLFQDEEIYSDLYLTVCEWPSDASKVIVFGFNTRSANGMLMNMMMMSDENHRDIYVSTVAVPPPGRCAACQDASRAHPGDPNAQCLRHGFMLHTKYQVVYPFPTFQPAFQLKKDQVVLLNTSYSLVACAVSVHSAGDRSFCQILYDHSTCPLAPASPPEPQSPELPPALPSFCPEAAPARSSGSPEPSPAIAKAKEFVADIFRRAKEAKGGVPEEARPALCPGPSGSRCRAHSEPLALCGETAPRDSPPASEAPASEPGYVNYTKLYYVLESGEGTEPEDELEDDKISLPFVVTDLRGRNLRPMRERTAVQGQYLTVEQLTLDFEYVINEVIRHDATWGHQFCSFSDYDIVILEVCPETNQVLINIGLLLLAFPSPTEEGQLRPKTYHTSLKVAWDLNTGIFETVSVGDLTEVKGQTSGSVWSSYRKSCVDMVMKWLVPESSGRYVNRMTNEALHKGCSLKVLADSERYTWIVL
T2 sequence (Q16531 2-1140 partner limits assumed): as the sequence (Q16531 2-1140 limits assumed) above
T3 sequence (Q66K64 whole entry): as the sequence (Q66K64 whole entry) above

C#CCCC1(CCC(=O)Nc2ccc3[nH]c(SCC(=O)Nc4ccc(Cl)cn4)nc3c2)N=N1 [IC021313.2^PAP]
proteins enriched in photo-affinity pulldown (immunoblot) (CCNK and DDB1 [1]): DDB1 and CCNK were enriched in the eluates

Nc1ccc2[nH]c(SCC(=O)Nc3ccc(Cl)cn3)nc2c1 [IC021313.2^NH2]
interacting proteins in bead pulldown (immunoblot) (CCNK and DDB1 [2]): both CCNK and DDB1 as interacting proteins

Cc1ccc(S(=O)(=O)N/N=C/c2cc(Br)ccc2O)cc1 [dCeMM.1]
sensitivity upon inactivation of DCAF15 [3]: pronounced resistance | RBM39 destabilization (Western blot), DCAF15-dependent (RBM39): significant destabilization of RBM39 levels | anti-proliferative effect upon mutation of UBE2M (UBE2M mutant KBM7 cells): loses anti-proliferative activity | DCAF15 stabilization (relative luciferase signal over time) (DCAF15): significant DCAF15 stabilization
